Literature values in patent publication US10752566B2, “Solvent compositions for use as replacements for slow evaporating solvents” (TBF ENVIRONMENTAL TECHNOLOGY INC., priority 2015, dated 2020).

Conditions: PCBTF

FC(F)(F)c1ccc(Cl)cc1 [PCBTF, para-Chlorobenzotrifluoride]
specific gravity: 1.34
